In paper PMC11901578, “Polymethoxyflavones and Bone Metabolism” (Nutrients, 2025):
Like-named read-outs stand apart in the source and are kept apart here.

Legend:
estrogen receptor-α = estrogen receptor-α (Homo sapiens, UniProt P03372); experiment: Estrogen receptor-binding assay; settings: unpublished data
From the text: (§1) An anticipated adverse effect of long-term flavonoid supplementation is an estrogen-like effect. Although isoflavones, such as genistein and daidzein, have estrogenic effects via binding to estrogen receptors, there are no reports on polymethoxyflavones. […] On the other hand, excessive long-term intake of PMFs may indicate some toxicity, since a high concentration of PMFs may lead to inhibited cell growth or cell death in various cell types, including osteoblasts, endothelial cells, and cancer cell lines.

estrogen receptor-β = estrogen receptor-β (Homo sapiens, UniProt Q92731); experiment: Estrogen receptor-binding assay; settings: unpublished data
estrogen receptor-β, sequence (Q92731 whole entry): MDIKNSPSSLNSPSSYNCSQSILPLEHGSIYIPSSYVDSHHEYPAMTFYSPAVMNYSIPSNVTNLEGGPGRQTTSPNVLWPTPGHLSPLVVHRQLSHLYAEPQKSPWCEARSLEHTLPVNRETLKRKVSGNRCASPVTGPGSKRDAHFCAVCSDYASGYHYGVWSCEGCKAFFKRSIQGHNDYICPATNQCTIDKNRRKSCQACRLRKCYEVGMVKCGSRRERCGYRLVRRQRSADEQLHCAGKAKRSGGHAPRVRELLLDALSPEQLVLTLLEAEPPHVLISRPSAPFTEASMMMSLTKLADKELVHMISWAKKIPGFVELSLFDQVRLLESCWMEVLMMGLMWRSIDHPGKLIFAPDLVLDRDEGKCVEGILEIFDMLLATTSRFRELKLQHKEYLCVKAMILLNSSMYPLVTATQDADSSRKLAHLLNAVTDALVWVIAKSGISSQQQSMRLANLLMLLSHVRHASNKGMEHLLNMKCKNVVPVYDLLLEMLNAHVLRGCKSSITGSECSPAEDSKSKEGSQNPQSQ
From the text: as §1

[1] = system: osteoclast differentiation in co-cultures of osteoblasts and bone marrow cells; settings: cited from earlier work
[2] = system: bone resorption in mouse bone organ cultures; parameters: method as in PMID 21258168, PMID 22850615; settings: 60 μM; cited from earlier work
[3] = system: osteoclast differentiation in co-culture system; settings: 30 μM, cited from earlier work
[4] = system: bone resorption in mouse calvarial or alveolar bone organ cultures; settings: 30 μM, bone organ cultures; cited from earlier work
Raw264.7 = settings: cited from earlier work
IKKβ = system: IKKβ; parameters: method as in PMID 21258168, PMID 22850615; settings: in vitro kinase assay; cited from earlier work
[5] = system: PGE2 production in osteoblasts; parameters: method as in PMID 21258168, PMID 22850615; settings: with downregulation of COX-2; cited from earlier work
[6] = system: human osteoblastic cell line MG-63; parameters: method as in PMID 34466066; settings: 10 and 20 μg/mL (approximately 25 and 50 μM); cited from earlier work
[7] = system: ectopic bone formation in mice; parameters: method as in PMID 36816515; settings: collagen sponge disk with BMP-2 (1 μg) and nobiletin (2.5 or 5 μg), fascia of back muscle; cited from earlier work
[8] = system: ovariectomized (OVX) mice; settings: cited from earlier work
[9] = system: human periodontal ligament cells (HPDLCs); settings: 12.5, 25, 50, and 100 μM, TNF- or IL-1-stimulated HPDLCs; cited from earlier work
[10] = system: alveolar bone loss in mice; settings: cited from earlier work; for alveolar bone loss in mice, restored: LPS +; for decrease of alveolar bone mineral density (ABMD): co-injection with LPS (25 μg/mouse/day), three times every other day, LPS alone 9%
[11] = system: collagen-induced arthritic mice; settings: cited from earlier work
[12] = system: MH7A human fibroblast-like synoviocytes (FLS); parameters: method as in PMID 31978425; settings: 50 μM; cited from earlier work
human OA chondrocytes = system: human OA chondrocytes; parameters: method as in PMID 30938722; settings: IL-1-stimulated human OA chondrocytes; cited from earlier work
DMM-OA mice = settings: cited from earlier work
[13] = system: NF-κB signaling in chondrocytes; parameters: method as in PMID 31214026; settings: 10, 20, and 40 μM; cited from earlier work
HL-60 cells = system: HL-60 cells; parameters: method as in PMID 23225422; settings: read-out: IC50, anti-proliferative effect on HL-60 cells; cited from earlier work
[14] = system: human umbilical vein endothelial cells (HUVECs); parameters: method as in PMID 22707269; settings: read-out: IC50, anti-proliferative effect on HUVECs; cited from earlier work
zebrafish embryos = system: zebrafish embryos; parameters: method as in PMID 22707269; settings: 30 μM, cited from earlier work
[15] = system: bone marrow macrophages (BMMs); settings: 50 μM; cited from earlier work
[16] = intraperitoneal 50 μM for 9 weeks
[17] = intraperitoneal 2 mg/mouse/day (approximately 67 mg/kg) for 4 weeks, Sham mice as 100%
[18] = subcutaneous 0.25 mg/day by mini-osmotic pump for 4 weeks

estrogen receptor-α, sequence (P03372 whole entry): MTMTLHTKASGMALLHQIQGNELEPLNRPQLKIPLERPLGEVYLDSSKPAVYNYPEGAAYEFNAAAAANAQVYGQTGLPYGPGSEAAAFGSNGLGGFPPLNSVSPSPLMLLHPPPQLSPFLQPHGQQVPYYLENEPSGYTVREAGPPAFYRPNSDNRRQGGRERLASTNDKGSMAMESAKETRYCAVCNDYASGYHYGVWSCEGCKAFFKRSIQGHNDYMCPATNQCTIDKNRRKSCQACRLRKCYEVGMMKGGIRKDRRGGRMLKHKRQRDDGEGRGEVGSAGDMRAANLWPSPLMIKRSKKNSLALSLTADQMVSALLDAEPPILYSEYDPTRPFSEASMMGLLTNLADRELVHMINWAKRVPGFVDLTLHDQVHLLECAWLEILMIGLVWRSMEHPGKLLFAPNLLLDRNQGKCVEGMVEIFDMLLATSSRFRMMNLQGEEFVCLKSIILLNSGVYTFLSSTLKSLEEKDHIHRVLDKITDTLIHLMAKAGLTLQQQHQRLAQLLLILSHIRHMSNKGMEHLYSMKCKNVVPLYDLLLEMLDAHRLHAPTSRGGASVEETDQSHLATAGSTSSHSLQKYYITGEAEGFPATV

For COc1ccc(-c2cc(=O)c3c(OC)c(OC)c(OC)c(OC)c3o2)cc1OC [Nobiletin, 3′,4′,5,6,7,8-Hexamethoxyflavone], the “binding to estrogen receptor-α” value (estrogen receptor-α) is given as “unable to bind”, the “binding to estrogen receptor-β” value (estrogen receptor-β) is given as “unable to bind” and the “inhibition of IL-1-induced osteoclast differentiation” value ([1]; 10 μM) is given as 20%. The “inhibition of IL-1-induced osteoclast differentiation” value ([1]; 30 μM) was 85%, the “inhibition of IL-1-induced osteoclast differentiation” value ([1]; 60 μM) was 100% and the IC50 ([1]; IL-1 +, read-out: IC50, osteoclast differentiation in co-culture system) was 33 µM. The IL-1-induced bone resorption [2] was “completely suppressed”, the LPS-induced osteoclast differentiation ([3]; co-cultures) was “significantly suppressed” and the “osteoclast differentiation in co-culture system, inhibited” value ([3]; LPS +) was 70% inhibited [8]. For the same molecule, the LPS-induced bone-resorbing activity [4] was “significantly suppressed”, the RANKL-induced osteoclast differentiation (Raw264.7; 4, 20, and 50 μM, Raw264.7) was “suppressed RANKL-induced osteoclast differentiation in a dose-dependent manner” and the “osteoclast differentiation in Raw264.7 cultures, inhibited” value (Raw264.7; RANKL +, 30 μM) was 86% inhibited [8]. The IC50 (Raw264.7; RANKL +, read-out: IC50, osteoclast differentiation in Raw264.7 cultures) was 8 µM, the IKKβ kinase activity (IKKβ) was “directly inhibited” and the PGE2 production [5] was “suppressed”. For the same molecule, the “osteoblast differentiation and mineralization” value [6] was “promoted osteoblast differentiation and mineralization in a dose-dependent manner”, the “increase of bone formation (BV/TV) relative to BMP-2 alone” value [7] was 33% and the “effect on body weight and the uterus” value [8] was “without affecting body weight and the uterus”. For the same molecule, the BMD restored [8, 16] was 4.5%, the BV/TV restored [8, 16] was 16% and the “trabecular separation (Tb.Sp) restored” value [8, 16] was 30%. For the same molecule, the “bone mineral density (BMD) of the femur restored” value [8, 17] was 6%, the “bone volume/tissue volume (BV/TV) of the femur restored” value [8, 17] was 34% and the “trabecular BMD in the distal femur restored” value ([8]; oral 50 and 100 mg/kg for 12 weeks, similar effects at both dosages) was 8%. For the same molecule, the “distal BMD in the femur restored” value [8, 18] was 5%, the “whole BMD in the femur restored” value [8, 18] was 4% and the “expression of inflammatory cytokines (CXCL10, CCL2, IL-8), MMP-1, MMP-3, and COX-2” value [9] was “dose-dependently reduced”. For the same molecule, the “alveolar bone loss in mice, restored” value ([10]; 30 μg/mouse) was 5% restored [8], the “alveolar bone loss in mice, restored” value ([10]; 100 μg/mouse) was 6% restored [8] and the “alveolar bone loss in mice, restored” value ([10]; 300 μg/mouse) was 9% restored [8]. The “decrease of alveolar bone mineral density (ABMD)” value (from here on “decrease … (ABMD)”) ([10]; 3 μg/mouse/day) was 3%, the “decrease … (ABMD)” value ([10]; 100 μg/mouse/day) was 4% and the “decrease … (ABMD)” value ([10]; 300 μg/mouse/day) was 1%. For the same molecule, the “gene expression and production of aggrecanase-1 and -2” value ([11]; collagen-induced arthritic mice) was “downregulate”, the “decrease of severity of arthritis” value ([11]; intraperitoneal 15, 30, and 60 mg/kg) was 45% and the IL-21-mediated inflammatory response [12] was “suppressed”. The “overproduction of inflammatory mediators (PGE2, NO, COX-2, iNOS, TNF-α, IL-6, MMPs)” value (human OA chondrocytes) was “significantly suppressed”, the “cartilage destruction and synovitis” value (DMM-OA mice; DMM-OA mice, intraperitoneal 20 mg/kg every 2 days for 8 weeks) was “inhibited cartilage destruction and synovitis” and the “cartilage destruction and subchondral bone thickening” value (DMM-OA mice; DMM-OA model mice) was “prevented cartilage destruction and thickening of the subchondral bone”. The “IL-1-induced NF-κB signaling” value [13] was “inhibited IL-1-induced NF-κB signaling in a dose-dependent manner”, the IC50 (HL-60 cells) was 52 µM and the IC50 [14] was 62 µM. The “anti-angiogenic effect on zebrafish embryos, inhibited” value (zebrafish embryos; listed as nobiletin) was about 63%, the “anti-angiogenic effect on zebrafish embryos, inhibited” value (zebrafish embryos) was 63% inhibited [47] and the “cytotoxicity to bone marrow macrophages (BMMs)” value [15] was “cytotoxic”.
